Columns and labels:
Assay type in all cases: cell-based
[1] = system: E. coli DH5α; experiment: Antibacterial activity: MIC and growth curve against E. coli DH5α in 96-well plate; conditions: minimal inhibitory concentration against E. coli DH5α; 96-well plate, 5×10^5 CFU/mL, 37° C., judged after 8 h
In short: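 MIC taken as lowest protein level with no bacterial growth, tracked by A600 every 30 min during 37 °C, 175 rpm culture. Two-fold protein series 50-12.5 μg/mL final, triplicate wells, against 5×10^5 CFU/mL of LB-washed mid-log cells.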

[2] = system: E. coli BL21; experiment: MIC against Gram-negative bacteria: E. coli BL21; conditions: E. coli BL21
In short: (§1)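 Read-out is absence of bacterial growth, with MIC set at the lowest recombinant protein concentration achieving it. Bacteria, pre-grown in LB to McFarland 0.5 and resuspended, were exposed at 5×10^5 CFU/mL to two-fold diluted human EGF domain proteins in triplicate at 37° C, 175 rpm.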

[3] = system: Pseudomonas aeruginosa; experiment: MIC against Gram-negative bacteria: Pseudomonas aeruginosa
In short: as §1

[4] = system: Klebsiella pneumonia; experiment: MIC against Gram-negative bacteria: Klebsiella pneumonia
In short: as §1

[5] = system: Enterobacter cloacae; experiment: MIC against Gram-negative bacteria: Enterobacter cloacae
In short: as §1

[6] = system: Aeromonas hydrophila; experiment: MIC against Gram-negative bacteria: Aeromonas hydrophila
In short: as §1

[7] = system: Citrobacter diversus; experiment: MIC against Gram-negative bacteria: Citrobacter diversus
In short: as §1

[8] = system: Moraxella catarrhalis; experiment: MIC against Gram-negative bacteria: Moraxella catarrhalis
In short: as §1

[9] = system: Proteus mirabilis; experiment: MIC against Gram-negative bacteria: Proteus mirabilis
In short: as §1

[10] = system: Proteus vulgaris; experiment: MIC against Gram-negative bacteria: Proteus vulgaris
In short: as §1

[11] = system: Serratia marcescens; experiment: MIC against Gram-negative bacteria: Serratia marcescens
In short: as §1

[12] = 96-well plate, 5×10^5 CFU/mL, 37° C., 10 h
[13] = Pseudomonas aeruginosa, 96-well plate, 5×10^5 CFU/mL, 37° C., 10 h
[14] = Klebsiella pneumonia, 96-well plate, 5×10^5 CFU/mL, 37° C., 10 h
[15] = Enterobacter cloacae, 96-well plate, 5×10^5 CFU/mL, 37° C., 10 h
[16] = Aeromonas hydrophila, 96-well plate, 5×10^5 CFU/mL, 37° C., 10 h
[17] = Citrobacter diversus, 96-well plate, 5×10^5 CFU/mL, 37° C., 10 h
[18] = Moraxella catarrhalis, 96-well plate, 5×10^5 CFU/mL, 37° C., 10 h
[19] = Proteus mirabilis, 96-well plate, 5×10^5 CFU/mL, 37° C., 10 h
[20] = Proteus vulgaris, 96-well plate, 5×10^5 CFU/mL, 37° C., 10 h
[21] = Serratia marcescens, 96-well plate, 5×10^5 CFU/mL, 37° C., 10 h
[22] = 10 h cultivation at 37° C., 5×10^5 CFU/mL
[23] = P. aeruginosa, 10 h cultivation at 37° C., 5×10^5 CFU/mL
[24] = K. pneumonia, 10 h cultivation at 37° C., 5×10^5 CFU/mL
[25] = E. cloacae, 10 h cultivation at 37° C., 5×10^5 CFU/mL
[26] = A. hydrophila, 10 h cultivation at 37° C., 5×10^5 CFU/mL
[27] = C. diversus, 10 h cultivation at 37° C., 5×10^5 CFU/mL
[28] = M. catarrhalis, 10 h cultivation at 37° C., 5×10^5 CFU/mL
[29] = P. mirabilis, 10 h cultivation at 37° C., 5×10^5 CFU/mL
[30] = P. vulgaris, 10 h cultivation at 37° C., 5×10^5 CFU/mL
[31] = S. marcescens, 10 h cultivation at 37° C., 5×10^5 CFU/mL

With “PRT1234 (LASGCPWMCSGRGICDAGRCVCDRGFGGPYCV; listed as Homo sapiens)” as the substance, how does the MIC [1] read?
Its MIC is 25 µg/mL.

And the “MIC against E. coli BL21” value [2, 12]?
The value was 50 µg/mL.

And the “MIC against P. aeruginosa” value [3, 13]?
Its value is 12.5 µg/mL.

And the “MIC against K. pneumonia” value [4, 14]?
Its value is 25 µg/mL.

And the “MIC against E. cloacae” value [5, 15]?
Its value is 50 µg/mL.

What about the “MIC against A. hydrophila” value [6, 16] of the same substance?
The value was 25 µg/mL.

And the “MIC against C. diversus” value [7, 17]?
The value was 25 µg/mL.

And the “MIC against M. catarrhalis” value [8, 18]?
Its value is 25 µg/mL.

And the “MIC against P. mirabilis” value [9, 19]?
Its value is 25 µg/mL.

What about the “MIC against P. vulgaris” value [10, 20] of the same substance?
Its value is 12.5 µg/mL.

And the “MIC against S. marcescens” value [11, 21]?
Its value is 25 µg/mL.

With “PRT947 (NIDDCARGPHCLNGGQCMDRIGGYSCRCLPGFAGERCE; listed as Homo sapiens)” as the substance, how does the MIC [1] read?
The MIC was 12.5 µg/mL.

And the MIC ([2]; 10 h cultivation at 37° C.)?
Its MIC is 50 µg/mL.

What about the MIC ([3]; P. aeruginosa, 10 h cultivation at 37° C.) of the same substance?
The MIC was 12.5 µg/mL.

And the MIC ([4]; K. pneumonia, 10 h cultivation at 37° C.)?
The MIC was 50 µg/mL.

What about the MIC ([5]; E. cloacae, 10 h cultivation at 37° C.) of the same substance?
Its MIC is 12.5 µg/mL.

And the MIC ([6]; A. hydrophila, 10 h cultivation at 37° C.)?
Its MIC is 50 µg/mL.

What about the MIC ([7]; C. diversus, 10 h cultivation at 37° C.) of the same substance?
The MIC was 25 µg/mL.

And the MIC ([8]; M. catarrhalis, 10 h cultivation at 37° C.)?
The MIC was 12.5 µg/mL.

And the MIC ([9]; P. mirabilis, 10 h cultivation at 37° C.)?
The MIC was 25 µg/mL.

And the MIC ([10]; P. vulgaris, 10 h cultivation at 37° C.)?
The MIC was 50 µg/mL.

What about the MIC ([11]; S. marcescens, 10 h cultivation at 37° C.) of the same substance?
Its MIC is 12.5 µg/mL.

How did the MIC [1] turn out when “PRT28 (VDACLLNPCQNQGSCRHLPGAPHGYTCDCVGGYFGHHCE; listed as Homo sapiens)” was run?
Its MIC is 50 µg/mL.

What about the “MIC (μg/mL) E. coli BL21” value [2, 12] of the same substance?
The value was 25 µg/mL.

What about the “MIC (μg/mL) P. aeruginosa” value [3, 13] of the same substance?
The value was 12.5 µg/mL.

What about the “MIC (μg/mL) K. pneumonia” value [4, 14] of the same substance?
Its value is 50 µg/mL.

And the “MIC (μg/mL) E. cloacae” value [5, 15]?
Its value is 25 µg/mL.

What about the “MIC (μg/mL) A. hydrophila” value [6, 16] of the same substance?
The value was 12.5 µg/mL.

What about the “MIC (μg/mL) C. diversus” value [7, 17] of the same substance?
Its value is 25 µg/mL.

And the “MIC (μg/mL) M. catarrhalis” value [8, 18]?
The value was 50 µg/mL.

And the “MIC (μg/mL) P. mirabilis” value [9, 19]?
Its value is 12.5 µg/mL.

What about the “MIC (μg/mL) P. vulgaris” value [10, 20] of the same substance?
Its value is 25 µg/mL.

And the “MIC (μg/mL) S. marcescens” value [11, 21]?
Its value is 50 µg/mL.

Which results are given for “PRT103 (CSSYGKLCRNGGKCRERPIGFFCDCTFSAYTGPFC; listed as Homo sapiens)”?
MIC [1]: 50 µg/mL; MIC (μg/mL) E. coli BL21 [2, 12]: 12.5 µg/mL; MIC (μg/mL) P. aeruginosa [3, 13]: 50 µg/mL; MIC (μg/mL) K. pneumonia [4, 14]: 12.5 µg/mL; MIC (μg/mL) E. cloacae [5, 15]: 12.5 µg/mL; MIC (μg/mL) A. hydrophila [6, 16]: 12.5 µg/mL; MIC (μg/mL) C. diversus [7, 17]: 12.5 µg/mL; MIC (μg/mL) M. catarrhalis [8, 18]: 12.5 µg/mL; MIC (μg/mL) P. mirabilis [9, 19]: 25 µg/mL; MIC (μg/mL) P. vulgaris [10, 20]: 12.5 µg/mL; MIC (μg/mL) S. marcescens [11, 21]: 25 µg/mL

With “PRT435 (DMDECSFSEFLCQHECVNQPGTYFCSCPPGYILLDDNRSCQ; listed as Homo sapiens)” as the substance, how does the MIC [1] read?
The MIC was 12.5 µg/mL.

And the MIC [2, 22]?
Its MIC is 25 µg/mL.

What about the MIC [3, 23] of the same substance?
Its MIC is 12.5 µg/mL.

And the MIC [4, 24]?
The MIC was 25 µg/mL.

What about the MIC [5, 25] of the same substance?
Its MIC is 12.5 µg/mL.

And the MIC [6, 26]?
Its MIC is 25 µg/mL.

And the MIC [7, 27]?
Its MIC is 12.5 µg/mL.

What about the MIC [8, 28] of the same substance?
Its MIC is 25 µg/mL.

And the MIC [9, 29]?
The MIC was 12.5 µg/mL.

What about the MIC [10, 30] of the same substance?
Its MIC is 25 µg/mL.

What about the MIC [11, 31] of the same substance?
The MIC was 50 µg/mL.

Which results are given for “PRT806 (FGFQCSQHCDCHNGGQCSPTTGACECEPGYKGPRCQ; listed as Homo sapiens)”?
MIC [1]: 12.5 µg/mL; MIC (μg/mL) E. coli BL21 [2, 22]: 25 µg/mL; MIC (μg/mL) P. aeruginosa [3, 23]: 12.5 µg/mL; MIC (μg/mL) K. pneumonia [4, 24]: 12.5 µg/mL; MIC (μg/mL) E. cloacae [5, 25]: 12.5 µg/mL; MIC (μg/mL) A. hydrophila [6, 26]: 12.5 µg/mL; MIC (μg/mL) C. diversus [7, 27]: 12.5 µg/mL; MIC (μg/mL) M. catarrhalis [8, 28]: 25 µg/mL; MIC (μg/mL) P. mirabilis [9, 29]: 12.5 µg/mL; MIC (μg/mL) P. vulgaris [10, 30]: 25 µg/mL; MIC (μg/mL) S. marcescens [11, 31]: 25 µg/mL

What does the source list for “PRT1304 (ARDPCLGHRCHHGKCVATGTSYMCKCAEGYGGDLCD; listed as Homo sapiens)”?
MIC [1]: 25 µg/mL; MIC against E. coli BL21 [2, 12]: 12.5 µg/mL; MIC against P. aeruginosa [3, 13]: 25 µg/mL; MIC against K. pneumonia [4, 14]: 12.5 µg/mL; MIC against E. cloacae [5, 15]: 12.5 µg/mL; MIC against A. hydrophila [6, 16]: 25 µg/mL; MIC against C. diversus [7, 17]: 12.5 µg/mL; MIC against M. catarrhalis [8, 18]: 25 µg/mL; MIC against P. mirabilis [9, 19]: 12.5 µg/mL; MIC against P. vulgaris [10, 20]: 25 µg/mL; MIC against S. marcescens [11, 21]: 12.5 µg/mL

Source: patent publication US9833497B2, “Human originated EGF domain proteins and use of the same” (CHENGDU SOURCEBIO LIMITED-LIABILITY COMPANY, priority 2013, dated 2017)
